# Tests used:
# pigweed = assay: Test B pre/postemergence pigweed; assay type: in vivo, Amaranthus retroflexus
# Outline: (§1)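 Test chemicals in a non-phytotoxic solvent mixture with surfactant were sprayed preemergence onto planted seeds and postemergence onto plants 2 to 18 cm tall (1- to 4-leaf stage). After twelve to sixteen days in a greenhouse, injury was visually rated against untreated controls from 0 (no effect) to 10 (complete control).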
# cocklebur = assay: Test B pre/postemergence cocklebur; assay type: in vivo, Xanthium strumarium
# Outline: as §1
# surinam grass = assay: Test B pre/postemergence surinam grass; assay type: in vivo, Brachiaria decumbens
# Outline: as §1
# wild oat = assay: Test B pre/postemergence wild oat; assay type: in vivo, Avena fatua
# Outline: as §1
# soybean = assay: Test B pre/postemergence soybean; assay type: in vivo, Glycine max
# Outline: as §1
# giant foxtail = assay: Test B pre/postemergence giant foxtail; assay type: in vivo, Setaria faberii
# Outline: as §1
# velvetleaf = assay: Test B pre/postemergence velvetleaf; assay type: in vivo, Abutilon theophrasti
# Outline: as §1
# corn = assay: Test B pre/postemergence corn; assay type: in vivo, Zea mays
# Outline: as §1
# rape = assay: Test B pre/postemergence rape; assay type: in vivo, Brassica napus
# Outline: as §1
# sugar beet = assay: Test B pre/postemergence sugar beet; assay type: in vivo, Beta vulgaris
# Outline: as §1
# blackgrass = assay: Test B pre/postemergence blackgrass; assay type: in vivo, Alopecurus myosuroides
# Outline: as §1
# crabgrass = assay: Test B pre/postemergence crabgrass; assay type: in vivo, Digitaria sanguinalis
# Outline: as §1
# bedstraw = assay: Test B pre/postemergence bedstraw; assay type: in vivo, Galium aparine; details: for Bedstraw plant response rating: scale 0 to 10, 0 is no effect, 10 is complete control
# Outline: as §1
# wheat = assay: Test B pre/postemergence wheat; assay type: in vivo, Triticum aestivum
# Outline: as §1
# morningglory = assay: Test B pre/postemergence morningglory; assay type: in vivo, Ipomoea hederacea
# Outline: as §1
# purple nutsedge = assay: Test B pre/postemergence purple nutsedge; assay type: in vivo, Cyperus rotundus
# Outline: as §1
# [1] = Postemergence, Rate 62 g/ha, scale of 0 to 10, 0 is no effect, 10 is complete control
# [2] = Postemergence, Rate 125 g/ha, scale 0 to 10, 0 is no effect, 10 is complete control
# [3] = Postemergence, Rate 500 g/ha, scale 0 to 10, 0 is no effect, 10 is complete control
# [4] = Preemergence, Rate 62 g/ha, scale of 0 to 10 where 0 is no effect and 10 is complete control
# [5] = Preemergence, Rate 125 g/ha, scale 0 to 10, 0 is no effect, 10 is complete control
# [6] = Preemergence, Rate 500 g/ha, scale of 0 to 10 where 0 is no effect and 10 is complete control
# [7] = Postemergence, Rate 250 g/ha, scale 0 to 10
# [8] = Preemergence, Rate 250 g/ha, scale 0 to 10, 0 is no effect, 10 is complete control
smiles,measurement,setting,value
CC(C)N(C(=O)n1oc(=O)n(C(C)C(=O)c2ccccc2)c1=O)c1ccc(F)cc1F (stereo not drawn) [Compound 511],Redroot pigweed plant response rating,pigweed; [1],5
same,Redroot pigweed plant response rating,pigweed; [2],6
same,"Plant response rating, Redroot pigweed",pigweed; [3],7
same,"Plant response rating, Redroot pigweed",pigweed; [4],4
same,Redroot pigweed plant response rating,pigweed; [5],6
same,Redroot pigweed plant response rating,pigweed; [6],8
same,Cocklebur plant response rating,cocklebur; [1],0
same,Cocklebur plant response rating,cocklebur; [2],0
same,Cocklebur plant response rating,cocklebur; [7],0
same,"Plant response rating, Cocklebur",cocklebur; [3],0
same,"Plant response rating, Cocklebur",cocklebur; [4],0
same,Cocklebur plant response rating,cocklebur; [5],0
same,Cocklebur plant response rating,cocklebur; [8],0
same,Cocklebur plant response rating,cocklebur; [6],0
same,B. signalgrass plant response rating,surinam grass; [1],0
same,B. signalgrass plant response rating,surinam grass; [2],0
same,B. signalgrass plant response rating,"surinam grass; Postemergence, Rate 250 g/ha, scale 0 to 10, 0 no effect, 10 complete control",0
same,"Plant response rating, B. signalgrass",surinam grass; [3],3
same,"Plant response rating, B. signalgrass",surinam grass; [4],0
same,B. signalgrass plant response rating,surinam grass; [5],0
same,B. signalgrass plant response rating,surinam grass; [8],0
same,B. signalgrass plant response rating,"surinam grass; Preemergence, Rate 500 g/ha, scale 0 to 10, 0 is no effect, 10 is complete control",0
same,Wild oats plant response rating,wild oat; [1],0
same,Wild oats plant response rating,wild oat; [2],0
same,"Plant response rating, Wild oats",wild oat; [3],0
same,"Plant response rating, Wild oats",wild oat; [4],0
same,Wild oats plant response rating,wild oat; [5],0
same,Wild oats plant response rating,wild oat; [6],2
same,Soybean plant response rating,soybean; [1],1
same,Soybean plant response rating,soybean; [2],4
same,"Plant response rating, Soybean",soybean; [3],4
same,"Plant response rating, Soybean",soybean; [4],0
same,Soybean plant response rating,soybean; [5],0
same,Soybean plant response rating,soybean; [6],0
same,Giant foxtail plant response rating,giant foxtail; [1],3
same,Giant foxtail plant response rating,giant foxtail; [2],3
same,"Plant response rating, Giant foxtail",giant foxtail; [3],9
same,"Plant response rating, Giant foxtail",giant foxtail; [4],5
same,Giant foxtail plant response rating,giant foxtail; [6],10
same,Velvetleaf plant response rating,velvetleaf; [1],0
same,Velvetleaf plant response rating,velvetleaf; [2],1
same,"Plant response rating, Velvetleaf",velvetleaf; [3],2
same,"Plant response rating, Velvetleaf",velvetleaf; [4],0
same,Velvetleaf plant response rating,velvetleaf; [5],0
same,Velvetleaf plant response rating,velvetleaf; [6],0
same,Corn plant response rating,corn; [1],0
same,Corn plant response rating,corn; [2],0
same,Corn plant response rating,corn; [7],0
same,"Plant response rating, Corn",corn; [3],0
same,"Plant response rating, Corn",corn; [4],0
same,Corn plant response rating,corn; [5],0
same,Corn plant response rating,corn; [6],0
same,Rape plant response rating,rape; [1],0
same,Rape plant response rating,rape; [2],1
same,"Plant response rating, Rape",rape; [3],4
same,"Plant response rating, Rape",rape; [4],0
same,Rape plant response rating,rape; [5],0
same,Rape plant response rating,rape; [6],0
same,Sugarbeets plant response rating,sugar beet; [1],0
same,Sugarbeets plant response rating,sugar beet; [2],0
same,"Plant response rating, Sugarbeets",sugar beet; [3],2
same,"Plant response rating, Sugarbeets",sugar beet; [4],0
same,Sugarbeets plant response rating,sugar beet; [5],0
same,Sugarbeets plant response rating,sugar beet; [6],0
same,Blackgrass plant response rating,blackgrass; [1],0
same,Blackgrass plant response rating,blackgrass; [2],0
same,Blackgrass plant response rating,blackgrass; [7],0
same,"Plant response rating, Blackgrass",blackgrass; [3],2
same,"Plant response rating, Blackgrass",blackgrass; [4],0
same,Blackgrass plant response rating,blackgrass; [5],0
same,Blackgrass plant response rating,blackgrass; [8],0
same,Blackgrass plant response rating,blackgrass; [6],0
same,Crabgrass plant response rating,crabgrass; [1],3
same,Crabgrass plant response rating,crabgrass; [2],3
same,Crabgrass plant response rating,crabgrass; [7],7
same,"Plant response rating, Crabgrass",crabgrass; [3],9
same,"Plant response rating, Crabgrass",crabgrass; [4],5
same,Crabgrass plant response rating,crabgrass; [5],6
same,Crabgrass plant response rating,crabgrass; [6],10
same,Bedstraw plant response rating,"bedstraw; Postemergence, Rate 125 g/ha",8
same,"Plant response rating, Bedstraw",bedstraw; [4],0
same,Bedstraw plant response rating,"bedstraw; Preemergence, Rate 125 g/ha",0
same,Bedstraw plant response rating,"bedstraw; Preemergence, Rate 250 g/ha",0
same,Bedstraw plant response rating,"bedstraw; Preemergence, Rate 500 g/ha",0
same,Wheat plant response rating,wheat; [1],0
same,Wheat plant response rating,wheat; [2],0
same,"Plant response rating, Wheat",wheat; [3],0
same,"Plant response rating, Wheat",wheat; [4],0
same,Wheat plant response rating,wheat; [5],0
same,Wheat plant response rating,wheat; [6],0
same,Morningglory plant response rating,morningglory; [1],4
same,Morningglory plant response rating,morningglory; [2],4
same,"Plant response rating, Morningglory",morningglory; [3],5
same,"Plant response rating, Morningglory",morningglory; [4],0
same,Morningglory plant response rating,morningglory; [5],0
same,Morningglory plant response rating,morningglory; [6],0
same,Nutsedge plant response rating,purple nutsedge; [1],0
same,Nutsedge plant response rating,purple nutsedge; [2],0
same,"Plant response rating, Nutsedge",purple nutsedge; [3],0
same,"Plant response rating, Nutsedge",purple nutsedge; [4],0
same,Nutsedge plant response rating,purple nutsedge; [5],0
same,Nutsedge plant response rating,purple nutsedge; [6],0

# From patent US6737383B1, “Herbicidal oxadiazolidines” (priority 1999, dated 2004)
